Measurements reported in ChEMBL document CHEMBL5727031, “Metabotropic glutamate receptor negative allosteric modulators (NAMS) and uses thereof” (2018).

Tests used:
[1] = (§1) In Vitro GIRK Thallium Flux Assay (60 minutes): Human Embryonic Kidney (HEK-293) cell lines co-expressing rat mGlu receptors 2, 3, 4, 6, 7 or 8 and G protein-coupled inwardly-rectifying potassium (GIRK) channels_ENREF_54 were grown in Growth Media containing 45% DMEM, 45% F-12, 10% FBS, 20 mM HEPES, 2 mM L-glutamine, antibiotic/antimycotic, non-essential amino acids, 700 μg/ml G418, and 0.6 μg/ml puromycin at 37° C. in the presence of 5% CO2. All cell culture reagents were purchased from Invitrogen Corp. (Carlsbad, Calif.) unless otherwise noted. Compound activity at the group II (mGlu2 and mGlu3) mGlus was assessed using thallium flux through GIRK channels. Briefly, cells were plated into 384-well, black-walled, clear-bottomed poly-D-lysine-coated plates at a density of 15,000 cells/20 μL/well in DMEM containing 10% dialyzed FBS, 20 mM HEPES, and 100 units/mL penicillin/streptomycin (assay media). Plated cells were incubated overnight at 37° C. in the presence of 5% CO2. The following day, the medium was exchanged from the cells to assay buffer [Hanks' balanced salt solution (Invitrogen) containing 20 mM HEPES, pH 7.3] using an ELX405 microplate washer (BioTek), leaving 20 μL/well, followed by the addition of 20 μL/well FluoZin2-AM (330 nM final concentration) indicator dye (Invitrogen; prepared as a stock in DMSO and mixed in a 1:1 ratio with Pluronic acid F-127) in assay buffer. Cells were incubated for 1 h at room temperature, and the dye exchanged to assay buffer using an ELX405, leaving 20 μL/well. Test compounds were diluted to 2 times their final desired concentration in assay buffer (0.3% DMSO final concentration). Agonists were diluted in thallium buffer [125 mM sodium bicarbonate (added fresh the morning of the experiment), 1 mM magnesium sulfate, 1.8 mM calcium sulfate, 5 mM glucose, 12 mM thallium sulfate, and 10 mM HEPES, pH 7.3] at 5 times the final concentration to be assayed. Cell plates and compound plates were loaded onto a kinetic imaging plate reader (FDSS 6000 or 7000; Hamamatsu Corporation, Bridgewater, N.J.). Appropriate baseline readings were taken (10 images at 1 Hz; excitation, 470±20 nm; emission, 540±30 nm) and test compounds were added in a 20 μL volume and incubated for either 2.5 min or 60 min as indicated before the addition of 10 μL of thallium buffer with or without agonist. After the addition of agonist, data were collected for approximately an additional 60 min. Data were analyzed using Excel (Microsoft Corp, Redmond, Wash.). The slope of the fluorescence increase beginning 5 s after thallium/agonist addition and ending 15 s after thallium/agonist addition was calculated, corrected to vehicle and maximal agonist control slope values, and plotted in using either XLfit (ID Business Solutions Ltd) or Prism software (GraphPad Software, San Diego, Calif.) to generate concentration-response curves. Potencies were calculated from fits using a four-point parameter logistic equation. For concentration-response curve experiments, compounds were serially diluted 1:3 into 10 point concentration response curves and were transferred to daughter plates using an Echo acoustic plate reformatter (Labcyte, Sunnyvale, Calif.). Test compounds were applied and followed by EC80 concentrations of glutamate.
[2] = as §1; remark: listed apart in the source
[3] = as §1, with “Assay (2.5” for “Assay (60”, “additional 2.5” for “additional 60”
[4] = as above; remark: listed apart in the source

Structure (SMILES): c1ccc(-c2cccc(-c3nc(-c4cccs4)n(-c4ccccc4)n3)c2)cc1
- EC50 ([1]; HEK293, 1 h): 3.67 µM
- EC50 ([2]; HEK293, 1 h): 1.68 µM
- EC50 ([3]; HEK293, 2.5 min): > 10 µM
- EC50 ([4]; HEK293, 2.5 min): 4.29 µM

Structure (SMILES): Clc1ccccc1-c1cccc(-c2csc(-c3ccccc3)n2)c1
- EC50 ([1]; HEK293, 1 h): > 30 µM
- EC50 ([2]; HEK293, 1 h): > 10 µM
- EC50 ([3]; HEK293, 2.5 min): > 30 µM
- EC50 ([4]; HEK293, 2.5 min): > 10 µM

Structure (SMILES): Fc1ccc(-c2cccc(-c3nsc(-c4ccoc4)n3)c2)cc1
- EC50 ([1]; HEK293, 1 h): 3.71 µM
- EC50 ([2]; HEK293, 1 h): > 10 µM
- EC50 ([3]; HEK293, 2.5 min): 3.63 µM
- EC50 ([4]; HEK293, 2.5 min): > 10 µM

Structure (SMILES): c1ccc(-c2nc(-c3cccc(-c4ccco4)c3)nn2-c2ccccc2)cc1
- EC50 ([1]; HEK293, 1 h): > 30 µM
- EC50 ([2]; HEK293, 1 h): > 30 µM
- EC50 ([3]; HEK293, 2.5 min): > 10 µM
- EC50 ([4]; HEK293, 2.5 min): 0.21 µM

Structure (SMILES): O/N=C\c1cc(-c2cccc(-c3csc(-c4ccccc4)n3)c2)ccc1F
- EC50 ([1]; HEK293, 1 h): > 10 µM
- EC50 ([2]; HEK293, 1 h): > 10 µM
- EC50 ([3]; HEK293, 2.5 min): > 30 µM
- EC50 ([4]; HEK293, 2.5 min): > 30 µM

Structure (SMILES): c1ccc(-c2cccc(-c3cc(-c4ccccc4)on3)c2)cc1
- EC50 ([1]; HEK293, 1 h): > 30 µM
- EC50 ([2]; HEK293, 1 h): > 10 µM
- EC50 ([3]; HEK293, 2.5 min): > 10 µM
- EC50 ([4]; HEK293, 2.5 min): > 10 µM

Structure (SMILES): Fc1cccc(-c2cccc(-c3nc(-c4ccccc4)n(-c4ccccc4)n3)c2)c1
- EC50 ([1]; HEK293, 1 h): > 10 µM
- EC50 ([2]; HEK293, 1 h): 1.51 µM
- EC50 ([3]; HEK293, 2.5 min): > 10 µM
- EC50 ([4]; HEK293, 2.5 min): 3.11 µM

Structure (SMILES): Cc1cc(NC(=O)OC(C)(C)C)c(NC(=O)CC(=O)c2cccc(Oc3ccccc3)c2)cc1C(F)(F)F
- EC50 ([1]; HEK293, 1 h): 1.19 µM
- EC50 ([2]; HEK293, 1 h): 1.93 µM
- EC50 ([3]; HEK293, 2.5 min): 2.21 µM
- EC50 ([4]; HEK293, 2.5 min): 2.62 µM

Structure (SMILES): COc1ccc(-c2cccc(-c3csc(-c4ccccc4)n3)c2)cc1
- EC50 ([1]; HEK293, 1 h): 2.14 µM
- EC50 ([2]; HEK293, 1 h): 2.86 µM
- EC50 ([3]; HEK293, 2.5 min): 1.73 µM
- EC50 ([4]; HEK293, 2.5 min): 1.77 µM

Structure (SMILES): O=[N+]([O-])c1cccc(-c2cccc(-c3csc(-c4ccccc4)n3)c2)c1
- EC50 ([1]; HEK293, 1 h): > 10 µM
- EC50 ([2]; HEK293, 1 h): > 30 µM
- EC50 ([3]; HEK293, 2.5 min): > 10 µM
- EC50 ([4]; HEK293, 2.5 min): > 10 µM

Structure (SMILES): O=C(O)c1cc(F)cc(-c2cccc(-c3nc(-c4ccoc4)cc(C(F)(F)F)n3)c2)c1
- EC50 [1]: 0.31 µM
- EC50 [2]: 1.56 µM
- EC50 [3]: 0.35 µM
- EC50 [4]: 2.21 µM

Structure (SMILES): C(=C\c1nc(-c2cccc(-c3ccccc3)c2)cs1)/c1ccccc1
- EC50 ([1]; HEK293, 1 h): > 10 µM
- EC50 ([2]; HEK293, 1 h): > 10 µM
- EC50 ([3]; HEK293, 2.5 min): 3.47 µM
- EC50 ([4]; HEK293, 2.5 min): > 10 µM

Structure (SMILES): Fc1cccc(-n2nc(-c3cccc(-c4ccccc4)c3)nc2-c2ccccc2)c1
- EC50 ([1]; HEK293, 1 h): > 10 µM
- EC50 ([2]; HEK293, 1 h): 1.16 µM
- EC50 ([3]; HEK293, 2.5 min): 3.22 µM
- EC50 ([4]; HEK293, 2.5 min): > 10 µM

Structure (SMILES): c1ccc(-c2cccc(-c3coc(-c4ccccc4)n3)c2)cc1
- EC50 ([1]; HEK293, 1 h): > 10 µM
- EC50 ([2]; HEK293, 1 h): > 30 µM
- EC50 ([3]; HEK293, 2.5 min): > 10 µM
- EC50 ([4]; HEK293, 2.5 min): > 30 µM

Structure (SMILES): c1ccc(-c2cccc(-c3noc(-c4ccccc4)n3)c2)cc1
- EC50 ([1]; HEK293, 1 h): 0.79 µM
- EC50 ([2]; HEK293, 1 h): > 10 µM
- EC50 ([3]; HEK293, 2.5 min): 1.33 µM
- EC50 ([4]; HEK293, 2.5 min): > 10 µM

Structure (SMILES): Cn1nc(-c2cccc(-c3ccccc3)c2)nc1-c1ccccc1
- EC50 ([1]; HEK293, 1 h): 1.48 µM
- EC50 ([2]; HEK293, 1 h): > 10 µM
- EC50 ([3]; HEK293, 2.5 min): 0.59 µM
- EC50 ([4]; HEK293, 2.5 min): > 10 µM

Structure (SMILES): c1ccc(-c2cccc(-c3nsc(-c4ccccc4)n3)c2)cc1
- EC50 ([1]; HEK293, 1 h): 0.05 µM
- EC50 ([2]; HEK293, 1 h): 0.45 µM
- EC50 ([3]; HEK293, 2.5 min): 0.32 µM
- EC50 ([4]; HEK293, 2.5 min): 2.28 µM

Structure (SMILES): Fc1cccc(-c2cccc(-c3nsc(-c4ccoc4)n3)c2)c1
- EC50 ([1]; HEK293, 1 h): 0.11 µM
- EC50 ([2]; HEK293, 1 h): 1.23 µM
- EC50 ([3]; HEK293, 2.5 min): 0.17 µM
- EC50 ([4]; HEK293, 2.5 min): 3.43 µM

Structure (SMILES): Fc1ccc(-c2cccc(-c3csc(-c4ccco4)n3)c2)cc1
- EC50 ([1]; HEK293, 1 h): > 10 µM
- EC50 ([2]; HEK293, 1 h): > 30 µM
- EC50 ([3]; HEK293, 2.5 min): 2.4 µM
- EC50 ([4]; HEK293, 2.5 min): > 10 µM

Structure (SMILES): c1ccc(Cn2nc(-c3cccc(-c4ccccc4)c3)nc2-c2ccccc2)cc1
- EC50 ([1]; HEK293, 1 h): 2.71 µM
- EC50 ([2]; HEK293, 1 h): 1.4 µM
- EC50 ([3]; HEK293, 2.5 min): > 10 µM
- EC50 ([4]; HEK293, 2.5 min): 3.9 µM

Structure (SMILES): Fc1ccc(-c2cccc(-c3csc(-c4ccccc4)n3)c2)cc1
- EC50 ([1]; HEK293, 1 h): 0.48 µM
- EC50 ([2]; HEK293, 1 h): > 10 µM
- EC50 ([3]; HEK293, 2.5 min): 0.33 µM
- EC50 ([4]; HEK293, 2.5 min): 1.21 µM

Structure (SMILES): CC(C)n1nc(-c2cccc(-c3ccccc3)c2)nc1-c1ccccc1
- EC50 ([1]; HEK293, 1 h): > 30 µM
- EC50 ([2]; HEK293, 1 h): > 10 µM
- EC50 ([3]; HEK293, 2.5 min): > 10 µM
- EC50 ([4]; HEK293, 2.5 min): > 10 µM

Structure (SMILES): COc1ccccc1-c1cccc(-c2csc(-c3ccccc3)n2)c1
- EC50 ([1]; HEK293, 1 h): 1.35 µM
- EC50 ([2]; HEK293, 1 h): > 10 µM
- EC50 ([3]; HEK293, 2.5 min): 1.81 µM
- EC50 ([4]; HEK293, 2.5 min): > 10 µM

Structure (SMILES): c1ccc(-c2cccc(-c3n[nH]c(-c4ccccc4)n3)c2)cc1
- EC50 ([1]; HEK293, 1 h): > 30 µM
- EC50 ([2]; HEK293, 1 h): > 30 µM
- EC50 ([3]; HEK293, 2.5 min): > 10 µM
- EC50 ([4]; HEK293, 2.5 min): > 30 µM

Structure (SMILES): Fc1ccc(-c2cccc(-c3nsc(-c4ccccc4)n3)c2)cc1
- EC50 ([1]; HEK293, 1 h): 0.05 µM
- EC50 ([2]; HEK293, 1 h): 0.46 µM
- EC50 ([3]; HEK293, 2.5 min): 0.1 µM
- EC50 ([4]; HEK293, 2.5 min): 0.52 µM
